Assay [1] has as its system sAC^FF mouse melanocytes. Put plainly: DAMP melanosome pH assay (HMB45 co-staining). The conditions noted are these: KH7 30 μM, 4 hours. The class given is cell-based. The procedure:
(§1) N-{3-[(2,4-dinitrophenyl)amino]propyl}-N-(3-aminopropyl)methylamine dihydrochloride (DAMP) is a weakly basic amine that is taken up in acidic organelles of live cells and which has been used to measure melanosome pH (Bin et al., PLOS One, 10(6):e0129273 (2015); Tabata et al., Cell Tissue Res., 332(3): 447-460 (2008)). Cells were cultured on sterile glass coverslips in 24-mm wells at 50×10^3 cells/coverslip. […] After permeabilization with 0.1% Triton X-100 in Buffer A at −20° C., the cells were labeled with the supplied anti-DNP antibody (Oxford Biomedical Research) according to kit protocol. Melanosomes were identified using the monoclonal antibody (anti-HMB45, 1:40, Santa Cruz Biotechnology). Fluorescence was detected after secondary staining with Alexa Fluor 546 donkey anti-goat IgG antibody (Invitrogen) and Alexa Fluor 647 donkey anti-mouse IgG antibody (Invitrogen). All quantitative analyses were performed using the Object Count tool in Nikon AR 4.60. For each image, the lower intensity threshold limit of each fluorescence channel was defined as the intensity of the dimmest punctum returned using the 3 points circle threshold tool. The upper intensity threshold limit was set to the maximum value. Equivalent diameter (EqDiameter) was restricted to 1.85-30.00 pixels. Circularity was restricted to 0.20-1.00. Mean fluorescence intensity was measured for all DAMP^+ puncta. Melanosomes were identified as HMB45^+ puncta. DAMP measurements were only recorded when colocalized with HMB45. Frequency distributions were generated for each sample from mean DAMP fluorescence intensity of DAMP^+ melanosomes. All analyses were performed on two replicate coverslips (n≥15 cells per coverslip). Melanosomes were first identified as TRP1^+ or tyrosinase^+ puncta. sAC^+ melanosomes were identified as R52^+ or R21^+ puncta colocalizing with TRP1^+ or tyrosinase^+ puncta. The degree of colocalization between sAC and melanosomes was calculated as the number of sAC+ melanosomes divided by the total number of melanosomes and expressed as a percentage.
(§2) The effect of pharmacologic inhibition of sAC was also measured using the DAMP assay described above. Briefly, Cells were cultured on sterile glass coverslips in 24-mm wells at 50×10^3 cells/coverslip and treated or not treated for 4 hours with 30 μM KH7 or LRE1. […] After permeabilization with 0.1% Triton X-100 in Buffer A at −20° C., the cells were labeled with the supplied anti-DNP antibody (Oxford Biomedical Research) according to kit protocol. Melanosomes were identified using the monoclonal antibody (anti-HMB45, 1:40, Santa Cruz Biotechnology). Fluorescence was detected after secondary staining with Alexa Fluor 546 donkey anti-goat IgG antibody (Invitrogen) and Alexa Fluor 647 donkey anti-mouse IgG antibody (Invitrogen). All images were acquired using a Zeiss LSM 880 and analyzed using NIS-Elements AR 4.60 (Nikon).

Assay [2] deals with sAC^KO mouse melanocytes. As to the kind of experiment: DAMP melanosome pH assay (HMB45 co-staining). The conditions noted are these: 4 hours, KH7 30 μM, cAMP analogs 500 μM, ESI-09 10 μM, MSH 100 nM. It is filed as cell-based. The protocol:
as §1, §2

Assay [3] relates to human melanocytes. As to the kind of experiment: DAMP melanosome pH assay (HMB45 co-staining). It is filed as cell-based. The settings on record: 4 hours, KH7 30 μM, cAMP 500 μM, H89 10 μM, ESI-09 10 μM. The protocol:
as §1
The effect of sAC inhibition on melanosome pH was also assessed in human melanocytes.

Assay [4] concerns sAC^FF mouse melanocytes. Put plainly: Cellular eumelanin content. The settings on record: KH7 30 μM or LRE1 50 μM, 96 hours. The class given is cell-based. The procedure: (§3) FIGS. 15A-15J provide the results of experiments analyzing the effect of sAC activity on melanin production. FIG. 15A is a graph illustrating the cellular eumelanin and pheomelanin content in sAC^FF (FF) and sAC^KO (KO) mouse melanocytes. Numbers above bars represent the ratio of pheomelanin to eumelanin. Average of triplicate determinations. FIG. 15B is a graph illustrating the cellular eumelanin content of sAC^FF and sAC^KO mouse melanocytes grown for 96 hours in the absence (−, DMSO) or presence of KH7 (+, 30 μM). Average of triplicate determinations. FIG. 15C is a graph illustrating the fold over baseline cellular eumelanin level of human melanocytes (n=8) treated with KH7 (30 μM) or vehicle (DMSO) for 48 hours. All assays performed in triplicate. Students t-test **P<0.01, ****P<0.0001. FIG. 15D is images of cell pellets of sAC^FF and sAC^KO mouse melanocytes. FIG. 15E is a graph of the melanin levels of pairs of sAC^FF and sAC^KO mouse melanocytes. FIGS. 15F and 15G are images of cell pellets of sAC^FF mouse melanocytes grown in the absence (DMSO, FIGS. 15G and 15F, left panels) or presence of KH7 (FIG. 15G, 30 μM, right panel) or LRE1 (FIG. 15F, 50 μM, right panel) for 96 hours. FIG. 15H is images of cell pellets of human melanocytes (C226, C38) treated with vehicle control (DMSO, left) or KH7 (30 μM, right) for 48 hours. FIG. 15I is images of cell pellets of human melanocytes (C226) treated with vehicle control (DMSO, left) or ESl-09 (10 μM, right) for 48 hours. FIG. 15J is a graph illustrating the fold over baseline cellular (eumelanin) level of human melanocytes treated with ESl-09 (10 μM) or vehicle (DMSO) for 48 hours (n=3, distinct human cell lines). For FIGS. 15E and 15J Students t-test, *p<0.05, **p<0.01, ****p<0.0001.

Assay [5] relates to sAC^KO mouse melanocytes. Put plainly: Cellular eumelanin content. It is filed as cell-based. The conditions noted are these: 96 hours. The procedure: as §3
Assay [6] has as its system C3H/HeJ mice. As to the kind of experiment: Topical treatment of ear, epidermal pigmentation (Fontana Masson). It is filed as in vivo, mouse. The settings on record: topical on right ear, twice a day for two weeks. The protocol: Melanocytes also exist in the epidermis at specific areas of mouse skin (e.g., pinnae) (Nordlund et al., Dermatol Clin., 4(3): 407-418 (1986)); thus, these areas were studied to examine the role of sAC in epidermal pigmentation. For analysis of epidermal pigmentation, using C3H/HeJ mice as above, 20 μl of KH7 ([…]), LRE1 (28 mg/ml) or DMSO (vehicle control) was topically applied on the right ear and DMSO was topically applied on the left ear twice a day for two weeks. Ear skin was monitored daily for irritation and changes in pigmentation. After two weeks, mice were euthanized and the treated skin was submitted to a blinded animal pathologist for histological evaluation of the epidermis and special stains (Fontana Masson). This experiment was performed twice with 3 mice per cohort (total n=6)

SMILES strings stand for the structures.

As for `CC(Sc1nc2ccccc2[nH]1)C(=O)N/N=C/c1cc(Br)ccc1O` (centres unmarked) [KH7], in assay [1] (mouse melanocytes), the HMB45 staining intensity entry is reported as “had no effect”. Moreover, in assay [1] (sAC^FF mouse melanocytes, cAMP 500 μM, H89 10 μM, PKI 10 μM, ESI-09 10 μM), the “melanosome pH (DAMP uptake at HMB45 positive melanosomes), substance alone” value is “reduction in DAMP uptake (alkaline shift in pH)”. Further, the “melanosome pH (DAMP), substance alone” value in assay [2] is reported as “had no effect”; in assay [3], “alkaline shift in melanosome pH”. Also, the eumelanin levels result in assay [4] is “increased eumelanin levels”; in assay [5] it was “had no effect”. For the same molecule, the “colour of ear epidermis relative to vehicle control” value in assay [6] (20 μl KH7 or LRE1 (28 mg/ml)) is given as “induced visual darkening of mouse ear epidermis”. The “epidermal melanin accumulation (Fontana Masson)” value in assay [6] is reported as “increase in epidermal melanin accumulation”.

Values taken from patent US11680264B2, “Methods of modulating melanosome pH and melanin level in cells” (Cornell University, priority 2016, dated 2023).
